Values joined by “and” are separate entries in the source; they are usually repeats but may differ in a detail not shown here. Identical values can stand only once. Inconclusive results and toxic doses are left out. Rule as the data show it: active = T/C of 150% or more; inactive = T/C below 125%.
System: L1210 leukemia ip in BDF1 mice, survival T/C
Assay: NCI In Vivo Anticancer Drug Screen. Data for tumor model L1210 Leukemia (intraperitoneal) in B6D2F1 (BDF1) mice
Conditions: endpoint: mean survival time, higher = longer survival
Method in brief: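 In this screen, tumor-bearing mice given compound are compared to those given vehicle, and their survival values are reported as a treated-to-control quotient.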

[1] = dose: 100.0 mg/kg/injection, schedule: Q01DX009 (ip), vehicle: saline with Tween-80
[2] = dose: 100.0 mg/kg/injection, schedule: Q01DX009 (ip), vehicle: saline
[3] = dose: 100.0 mg/kg/injection, schedule: Q04DX003 (ip), vehicle: saline with Tween-80
[4] = dose: 200.0 mg/kg/injection, schedule: Q01DX009 (ip), vehicle: saline
[5] = dose: 200.0 mg/kg/injection, schedule: Q04DX003 (ip), vehicle: saline with Tween-80
[6] = dose: 100.0 mg/kg/injection, schedule: Q04DX002 (ip), vehicle: Klucel (hydroxypropylcellulose) (HPC)
[7] = dose: 200.0 mg/kg/injection, schedule: Q04DX002 (ip), vehicle: Klucel (hydroxypropylcellulose) (HPC)
[8] = dose: 100.0 mg/kg/injection, schedule: Q01DX009 (ip), vehicle: Klucel (hydroxypropylcellulose) (HPC)
[9] = dose: 200.0 mg/kg/injection, schedule: Q01DX009 (ip), vehicle: Klucel (hydroxypropylcellulose) (HPC)
[10] = dose: 400.0 mg/kg/injection, schedule: Q01DX009 (ip), vehicle: Klucel (hydroxypropylcellulose) (HPC)

Measured: T/C

CN(Cc1ccccc1)C(=O)NC1CCCCC1
inactive: dose: 25.0 mg/kg/injection, schedule: Q01DX009 (ip), vehicle: saline 100 % of control and 101 % of control | dose: 50.0 mg/kg/injection, schedule: Q01DX009 (ip), vehicle: saline 100 % of control and 101 % of control | [1] 102 % of control | [2] 97 % of control and 100 % of control | dose: 100.0 mg/kg/injection, schedule: Q04DX002 (ip), vehicle: saline with Tween-80 94 % of control and 96 % of control | [3] 101 % of control | dose: 200.0 mg/kg/injection, schedule: Q01DX009 (ip), vehicle: saline with Tween-80 94 % of control and 105 % of control | [4] 96 % of control and 97 % of control | dose: 200.0 mg/kg/injection, schedule: Q04DX002 (ip), vehicle: saline with Tween-80 96 % of control and 100 % of control | [5] 102 % of control | dose: 400.0 mg/kg/injection, schedule: Q01DX009 (ip), vehicle: saline with Tween-80 95 % of control and 105 % of control | dose: 400.0 mg/kg/injection, schedule: Q04DX002 (ip), vehicle: saline with Tween-80 100 % of control and 92 % of control | dose: 400.0 mg/kg/injection, schedule: Q04DX003 (ip), vehicle: saline with Tween-80 95 % of control

O=C1CC2(CCN(Cc3ccccc3)CC2)C(=O)N1N1CCCC1
inactive: dose: 100.0 mg/kg/injection, schedule: Q01DX001 (ip), vehicle: Klucel (hydroxypropylcellulose) (HPC) 91 % of control | dose: 200.0 mg/kg/injection, schedule: Q01DX001 (ip), vehicle: Klucel (hydroxypropylcellulose) (HPC) 88 % of control | dose: 400.0 mg/kg/injection, schedule: Q01DX001 (ip), vehicle: Klucel (hydroxypropylcellulose) (HPC) 89 % of control

NC(=O)c1c(F)c(F)c(N)c(F)c1F
inactive: [6] 96 % of control | [7] 93 % of control | dose: 400.0 mg/kg/injection, schedule: Q04DX002 (ip), vehicle: Klucel (hydroxypropylcellulose) (HPC) 118 % of control

COc1cc(Cl)ccc1NC(=O)Oc1ccc(F)cc1Cl
inactive: [8] 104 % of control | [9] 108 % of control | [10] 106 % of control

CC(=O)c1ccc(NC(=S)Nc2ccc(C(C)=O)cc2)cc1
inactive: dose: 5.0 mg/kg/injection, schedule: Q01DX009 (ip), vehicle: saline with Tween-80 87 % of control | dose: 10.0 mg/kg/injection, schedule: Q01DX009 (ip), vehicle: saline with Tween-80 103 % of control | dose: 20.0 mg/kg/injection, schedule: Q01DX009 (ip), vehicle: saline with Tween-80 98 % of control and 115 % of control | dose: 40.0 mg/kg/injection, schedule: Q01DX009 (ip), vehicle: saline with Tween-80 97 % of control and 102 % of control | dose: 80.0 mg/kg/injection, schedule: Q01DX009 (ip), vehicle: saline with Tween-80 86 % of control | dose: 84.0 mg/kg/injection, schedule: Q01DX009 (ip), vehicle: saline with Tween-80 98 % of control | dose: 320.0 mg/kg/injection, schedule: Q01DX009 (ip), vehicle: saline with Tween-80 102 % of control

Nc1cc2c3ccccc3c(F)cc2c2ccccc12
inactive: [8] 106 % of control | dose: 100.0 mg/kg/injection, schedule: Q04DX003 (ip), vehicle: Klucel (hydroxypropylcellulose) (HPC) 96 % of control | [9] 104 % of control | dose: 200.0 mg/kg/injection, schedule: Q04DX003 (ip), vehicle: Klucel (hydroxypropylcellulose) (HPC) 93 % of control | [10] 101 % of control | dose: 400.0 mg/kg/injection, schedule: Q04DX003 (ip), vehicle: Klucel (hydroxypropylcellulose) (HPC) 98 % of control

CN=C(N)C(C)SS(=O)(=O)O (stereo unspecified)
inactive: dose: 50.0 mg/kg/injection, schedule: Q01DX009 (ip), vehicle: Klucel (hydroxypropylcellulose) (HPC) 101 % of control | dose: 50.0 mg/kg/injection, schedule: Q04DX002 (ip), vehicle: Klucel (hydroxypropylcellulose) (HPC) 106 % of control | [8] 107 % of control | [6] 92 % of control | [9] 104 % of control | [7] 89 % of control and 91 % of control

NC(=O)c1cc(C(N)=O)cc([N+](=O)[O-])c1
inactive: dose: 50.0 mg/kg/injection, schedule: Q01DX009 (ip), vehicle: saline with Tween-80 101 % of control | [1] 101 % of control | [3] 100 % of control | [5] 96 % of control

O=[N+]([O-])c1c(-c2ccccc2)no[n+]1[O-]
inactive: dose: 40.0 mg/kg/injection, schedule: Q04DX003 (ip), vehicle: Klucel (hydroxypropylcellulose) (HPC) 91 % of control | dose: 80.0 mg/kg/injection, schedule: Q04DX003 (ip), vehicle: Klucel (hydroxypropylcellulose) (HPC) 96 % of control

Nc1ccc2c(c1)C(=O)c1cc(N)c(Br)cc1-2
inactive: dose: 100.0 mg/kg/injection, schedule: Q01DX001 (ip), vehicle: carboxymethylcellulose (CMC) 93 % of control | dose: 200.0 mg/kg/injection, schedule: Q01DX001 (ip), vehicle: carboxymethylcellulose (CMC) 95 % of control | dose: 400.0 mg/kg/injection, schedule: Q01DX001 (ip), vehicle: carboxymethylcellulose (CMC) 98 % of control

CCCCCCCCCCCCn1cnc2ncnc(Cl)c21
inactive: dose: 12.5 mg/kg/injection, schedule: Q01DX005 (ip), vehicle: other 102 % of control | dose: 25.0 mg/kg/injection, schedule: Q01DX005 (ip), vehicle: other 98 % of control | dose: 50.0 mg/kg/injection, schedule: Q01DX005 (ip), vehicle: other 98 % of control | dose: 100.0 mg/kg/injection, schedule: Q01DX005 (ip), vehicle: other 96 % of control

CCCCCCCCC1=C(CCCCCCC(=O)OC)[14CH2]1
inactive: dose: 75.0 mg/kg/injection, schedule: Q04DX003 (ip), vehicle: saline 100 % of control | dose: 150.0 mg/kg/injection, schedule: Q04DX003 (ip), vehicle: saline 93 % of control | dose: 300.0 mg/kg/injection, schedule: Q04DX003 (ip), vehicle: saline 90 % of control

Cc1cc(N(CCCl)CCCl)ccc1N=Nc1ccccc1C(=O)O
inactive: dose: 3.1 mg/kg/injection, schedule: Q01DX Z (ip), vehicle: carboxymethylcellulose (CMC) 116 % of control | dose: 5.0 mg/kg/injection, schedule: Q01DX010 (ip), vehicle: saline 110 % of control and 111 % of control | dose: 10.0 mg/kg/injection, schedule: Q01DX010 (ip), vehicle: saline 119 % of control and 122 % of control | dose: 18.0 mg/kg/injection, schedule: Q01DX Z (ip), vehicle: carboxymethylcellulose (CMC) 122 % of control | dose: 20.0 mg/kg/injection, schedule: Q01DX010 (ip), vehicle: saline 121 % of control | dose: 25.0 mg/kg/injection, schedule: Q01DX Z (ip), vehicle: carboxymethylcellulose (CMC) 107 % of control | dose: 27.0 mg/kg/injection, schedule: Q01DX Z (ip), vehicle: carboxymethylcellulose (CMC) 114 % of control | dose: 40.0 mg/kg/injection, schedule: Q01DX010 (ip), vehicle: saline 88 % of control | dose: 40.0 mg/kg/injection, schedule: Q01DX Z (ip), vehicle: carboxymethylcellulose (CMC) 86 % of control

O=S(=O)(Cc1ccc(Br)cc1)Cc1ccc(Br)cc1
inactive: dose: 50.0 mg/kg/injection, schedule: Q01DX001 (ip), vehicle: saline 102 % of control | dose: 100.0 mg/kg/injection, schedule: Q01DX001 (ip), vehicle: saline 90 % of control | dose: 200.0 mg/kg/injection, schedule: Q01DX001 (ip), vehicle: saline 88 % of control | dose: 400.0 mg/kg/injection, schedule: Q01DX001 (ip), vehicle: saline 90 % of control

CC(=O)CC(=O)NCc1ccncc1
inactive: [2] 97 % of control | dose: 100.0 mg/kg/injection, schedule: Q04DX003 (ip), vehicle: saline 100 % of control | [4] 105 % of control | dose: 200.0 mg/kg/injection, schedule: Q04DX003 (ip), vehicle: saline 102 % of control | dose: 400.0 mg/kg/injection, schedule: Q01DX009 (ip), vehicle: saline 95 % of control | dose: 400.0 mg/kg/injection, schedule: Q04DX003 (ip), vehicle: saline 97 % of control

Source: PubChem BioAssay AID248 (DTP/NCI, 2004)
